Read-outs that look alike come from different tables or passages of the source.
Key:
[1] = tested on: L. infantum intracellular amastigotes; test: Activity against L. infantum intracellular amastigotes (luciferase); assay type: cell-based, Leishmania infantum; details: for inhibition at 10 µM: Leishmania infantum, read-out: L. infantum % cell growth inhibition
Procedure: Luciferase-expressing L. infantum (MHOM/MA/67/ITMAP-263) axenic amastigotes were cultured in MAA/20 medium at 37 °C with 5% CO2. The parasites were maintained in 5 mL T25 ventilated flasks and subcultured every 7 days at a concentration of 1 × 10^6 cells/mL.
The activity against Leishmania infantum intracellular amastigotes was evaluated following the method described with modifications. THP-1 cells were differentiated into macrophages with PMA as described above. The cells were then infected with L. infantum axenic amastigotes expressing episomal luciferase at a macrophage-to-amastigote ratio of 1:10 for 4 h at 37 °C and 5% CO2. Noninternalized parasites were washed away, and compounds were added at various concentrations to a final volume of 100 μL. A dose–response curve for miltefosine was included in all assays as a quality control. Each condition was tested in quadruplicate. After 72 h of incubation, the medium was replaced with 100 μL of PBS, and 25 μL of Glo-lysis buffer from the Steady-Glo Luciferase Assay System (Promega, Madison, WI, USA) was added. The plates were agitated at 100 rpm for 10 min at room temperature. Subsequently, 30 μL of the Steady-Glo reagent (Promega, Madison, WI, USA) was added and incubated for 15 min in the dark under the same conditions. A total of 140 μL from each well was transferred to white-bottom 96-well plates, and luminescence intensity was measured using a Synergy 2 multimode reader (Biotek, Winooski, VT, USA). The antileishmanial effect was evaluated by comparison of the nontreated infected cells. The IC50 was determined (for miltefosine) through nonlinear regression analysis using GraphPad Prism version 8.1.1 for Windows (GraphPad Software, San Diego, CA, USA). Results represent the average of at least three independent experiments.

CYP1A2 = molecular target: T1, CYP1A2 (Homo sapiens, UniProt P05177); test: Cytochrome P450 assay (P450-Glo), isoform 1A2; assay type: in vitro ADME
T1 construct: purchased Promega; host or cells: baculovirus-infected insect cells
T1 sequence (P05177 1-516): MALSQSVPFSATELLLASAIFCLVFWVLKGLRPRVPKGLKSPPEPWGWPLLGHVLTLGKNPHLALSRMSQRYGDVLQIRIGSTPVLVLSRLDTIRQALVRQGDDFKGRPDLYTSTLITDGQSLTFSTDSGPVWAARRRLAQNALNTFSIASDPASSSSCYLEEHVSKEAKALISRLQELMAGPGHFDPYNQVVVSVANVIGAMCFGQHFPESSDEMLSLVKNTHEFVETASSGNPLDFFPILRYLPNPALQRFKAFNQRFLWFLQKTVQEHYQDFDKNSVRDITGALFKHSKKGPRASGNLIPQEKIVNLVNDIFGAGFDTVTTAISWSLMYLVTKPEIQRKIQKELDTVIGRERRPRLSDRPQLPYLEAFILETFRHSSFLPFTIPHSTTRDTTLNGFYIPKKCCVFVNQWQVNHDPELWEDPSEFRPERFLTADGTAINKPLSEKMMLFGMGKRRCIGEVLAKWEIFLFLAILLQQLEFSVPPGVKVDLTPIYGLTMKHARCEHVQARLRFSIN
Excerpt: (§1) 3A4. The Promega P450-Glo assay platform was used with microsomal preparations of
(§2) cytochrome P450s from baculovirus-infected insect cells. […]

[2] = tested on: Trypanosoma brucei brucei L427 wild-type (WT) bloodstream forms; test: Activity against T. brucei (resazurin-based assay); assay type: cell-based; details: Trypanosoma brucei; for inhibition at 10 µM: read-out: T. brucei % cell growth inhibition
Procedure: The parasites were grown in 5 mL T25 ventilated flasks containing complete HMI-9 medium. The medium was supplemented with 10% heat-inactivated FBS and 100 IU/mL penicillin/streptomycin. To maintain the cultures, subpassages were performed every 2 days at a concentration of 1 × 10^4 cells/mL.
The efficacy of the compounds against Trypanosoma brucei brucei L427 wild-type (WT) bloodstream forms was assessed using a resazurin-based assay as described elsewhere. T. b. brucei L427 bloodstream forms were prepared at a cell density of 5 × 10^3 cells/mL in supplemented complete medium. Serial dilutions of the test compounds were prepared in a final volume of 100 μL, and 100 μL of the parasite suspension was added to each well containing the compound dilutions, resulting in a total volume of 200 μL per well. A dose–response curve for pentamidine was included as a quality control in each assay, and each condition was tested in duplicate. The plates were incubated for 72 h under the specified conditions for the parasite. After the incubation period, 20 μL of a 0.5 mM resazurin solution was added to each well, and the plates were incubated for an additional 4 h under the same conditions. Fluorescence was measured at an excitation wavelength of 544 nm and an emission wavelength of 590 nm using a Synergy 2 Multi-Mode Reader (Biotek, Winooski, VT, USA). The results were expressed as the percentage of parasite growth inhibition compared to the control (untreated parasites) and represented the average of at least three independent experiments.

CYP2C9 = molecular target: T2, CYP2C9 (Homo sapiens, UniProt P11712); test: Cytochrome P450 assay (P450-Glo), isoform 2C9; assay type: in vitro ADME
T2 construct: purchased Promega; host or cells: baculovirus-infected insect cells
Excerpt: as §1, §2

CYP3A4 = molecular target: T3, CYP3A4 (Homo sapiens, UniProt P08684); test: Cytochrome P450 assay (P450-Glo), isoform 3A4; assay type: in vitro ADME
T3 construct: purchased Promega; host or cells: baculovirus-infected insect cells
Excerpt: as §1, §2

A549 cells = test: Cytotoxicity against A549 cells (CellTiter-Glo); assay type: cell-based
Procedure: (§3) Cytotoxicity against A549 cells. The CellTiter-Glo assay from Promega was used. It detects the cellular ATP content, which is directly proportional to the number of viable cells. The A549 cells were obtained from DSMZ (German Collection of Microorganisms and Cell Cultures, Braunschweig, Germany) and cultured in Dulbecco’s modified Eagle medium (DMEM) with FCS (10% v/v), streptomycin (100 µg/mL), and penicillin G (100 U/mL)23. […]

CYP2C19 = molecular target: T4, CYP2C19 (Homo sapiens, UniProt P33261); test: Cytochrome P450 assay (P450-Glo), isoform 2C19; assay type: in vitro ADME
T4 construct: purchased Promega; host or cells: baculovirus-infected insect cells
Excerpt: as §1, §2

786-O cell line = test: Mitochondrial toxicity (MitoTracker Red uptake, high content imaging); assay type: cell-based; details: for IC50: read-out: mitotox. IC50
Excerpt: Mitochondrial toxicity caused by the synthesized compounds. Uptake of Mito-
Tracker Red (chloromethyl-X-rosamine) to the 786-O cell line was detected with high content
imaging. […]

[3] = Cytotoxicity against A549 cells (CellTiter-Glo); assay type: cell-based; details: human, A549 cells; for GI50: read-out: A549 cytotoxicity GI50 (50% growth inhibition)
Procedure: as §3

[4] = at 10 μM, intracellular amastigotes

T3 sequence (P08684 whole entry, canonical isoform): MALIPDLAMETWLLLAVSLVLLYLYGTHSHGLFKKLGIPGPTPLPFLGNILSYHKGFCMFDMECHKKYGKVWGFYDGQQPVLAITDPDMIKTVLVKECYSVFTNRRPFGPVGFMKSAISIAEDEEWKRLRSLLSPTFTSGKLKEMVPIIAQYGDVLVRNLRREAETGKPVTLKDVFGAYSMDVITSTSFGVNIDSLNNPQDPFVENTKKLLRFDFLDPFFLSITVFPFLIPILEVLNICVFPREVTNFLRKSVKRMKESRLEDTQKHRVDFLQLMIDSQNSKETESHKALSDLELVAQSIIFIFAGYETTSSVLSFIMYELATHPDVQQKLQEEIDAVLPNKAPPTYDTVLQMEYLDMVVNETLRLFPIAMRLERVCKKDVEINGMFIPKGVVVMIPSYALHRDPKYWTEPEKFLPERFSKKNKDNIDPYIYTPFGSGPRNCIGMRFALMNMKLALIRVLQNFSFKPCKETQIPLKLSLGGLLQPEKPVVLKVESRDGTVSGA
T2 sequence (P11712 whole entry, canonical isoform): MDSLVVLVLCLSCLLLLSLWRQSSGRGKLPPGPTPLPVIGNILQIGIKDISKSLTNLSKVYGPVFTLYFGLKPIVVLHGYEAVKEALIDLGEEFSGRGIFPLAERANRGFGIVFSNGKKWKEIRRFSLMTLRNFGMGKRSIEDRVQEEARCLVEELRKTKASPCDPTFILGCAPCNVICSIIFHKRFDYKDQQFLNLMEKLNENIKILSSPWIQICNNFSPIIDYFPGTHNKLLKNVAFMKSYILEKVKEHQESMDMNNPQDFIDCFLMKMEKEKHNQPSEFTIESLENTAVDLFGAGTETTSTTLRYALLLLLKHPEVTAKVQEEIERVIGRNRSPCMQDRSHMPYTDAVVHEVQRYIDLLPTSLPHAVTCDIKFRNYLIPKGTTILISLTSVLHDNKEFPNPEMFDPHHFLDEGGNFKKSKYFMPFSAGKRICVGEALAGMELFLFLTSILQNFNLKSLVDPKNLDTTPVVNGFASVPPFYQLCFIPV
T4 sequence (P33261 whole entry, canonical isoform): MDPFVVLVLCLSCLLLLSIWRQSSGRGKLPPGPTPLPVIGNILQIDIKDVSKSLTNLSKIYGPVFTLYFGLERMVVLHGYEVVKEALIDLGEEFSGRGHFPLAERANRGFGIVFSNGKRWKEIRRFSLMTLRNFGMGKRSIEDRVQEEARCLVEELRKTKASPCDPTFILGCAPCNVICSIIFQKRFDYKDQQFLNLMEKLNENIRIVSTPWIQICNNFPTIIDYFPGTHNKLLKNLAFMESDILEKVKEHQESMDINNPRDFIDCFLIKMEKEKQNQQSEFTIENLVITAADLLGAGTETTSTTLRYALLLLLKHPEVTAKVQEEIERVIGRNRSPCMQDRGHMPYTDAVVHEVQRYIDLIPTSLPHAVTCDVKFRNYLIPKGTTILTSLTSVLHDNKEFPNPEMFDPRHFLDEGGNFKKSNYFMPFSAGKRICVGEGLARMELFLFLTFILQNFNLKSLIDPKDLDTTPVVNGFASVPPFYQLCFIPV

| SMILES | inhibition at 10 µM [1, 4] [%] | CYP 1A2 IC50 (CYP1A2) | inhibition at 10 µM ([2]; at 10 μM) [%] | IC50 (CYP2C9; read-out: CYP 2C9 IC50) [µM] | IC50 (CYP3A4; read-out: CYP 3A4 IC50) [µM] | A549 cytotoxicity GI50 (50% growth inhibition) (A549 cells) | A549 cytotoxicity LC50 (50% lethal concentration) (A549 cells) | A549 cytotoxicity TGI (total growth inhibition) (A549 cells) | IC50 (CYP2C19; read-out: CYP 2C19 IC50) [µM] | mitotox. IC50 (786-O cell line) | IC50 (786-O cell line; Homo sapiens, 786-0) [µM] | GI50 [3] [µM] | IC50 (CYP1A2) [µM] | also measured |
| --- | --- | --- | --- | --- | --- | --- | --- | --- | --- | --- | --- | --- | --- | --- |
| Nc1nc2ccc(C(=O)NCCc3ccc(Br)cc3)cc2s1 [Compound 2e, 2-amino-N-(4-bromophenethyl)benzo[d]thiazole-6-carboxamide] | < 0 | max | 37 | 3.6 | 4.7 | max | max | max | 2.5 | mitotoxic | 0.2 |  |  |  |
| Nc1nc2ccc(C(=O)N(CCc3ccc(Cl)c(Cl)c3)c3ccccc3)cc2s1 [Compound 1e, 2-amino-N-(3,4-dichlorophenethyl)-N-phenylbenzo[d]thiazole-6-carboxamide] | < 0 |  | 31 |  |  |  |  |  |  |  |  |  |  | activity at 10 µM (CYP1A2; human, at 10 µM compound concentration, read-out: CYP 1A2 % residual activity): 37.7%; activity at 10 µM (CYP2C9; human, at 10 µM compound concentration, read-out: CYP 2C9 % residual activity): 35.3%; activity at 10 µM (CYP3A4; human, at 10 µM compound concentration, read-out: CYP 3A4 % residual activity): 26.3%; activity at 10 µM (A549 cells; Homo sapiens, A549, at 10 µM compound concentration, printed in GI50 column, read-out: A549 % residual activity): 103%; activity at 10 µM (CYP2C19; human, at 10 µM compound concentration, read-out: CYP 2C19 % residual activity): 31.1%; activity at 10 µM (786-O cell line; Homo sapiens, 786-0, at 10 µM compound concentration, read-out: mitotox. % residual activity): -33.8% |
| Nc1nc2ccc(C(=O)NCCc3ccc(Cl)c(Cl)c3)cc2s1 [Compound 1a, 2-amino-N-(3,4-dichlorophenethyl)benzo[d]thiazole-6-carboxamide] | < 0 | max | 100 |  | 1 |  | max | 54.4 µM | 8.5 |  | 27.9 | 27 |  | L. infantum % cell growth inhibition [1, 4]: inactive; EC50 ([2]; read-out: 95% confidence interval for EC50 (T. brucei)): 2.83 to 3.37 µM; EC50 ([2]; read-out: T. brucei EC50 (converted)): 3.1 µM; CYP 2C9 IC50 (CYP2C9): max |
| Nc1nc2ccc(C(=O)NCCc3cccc(Cl)c3)cc2s1 [Compound 2b, 2-amino-N-(3-chlorophenethyl)benzo[d]thiazole-6-carboxamide] |  | max |  |  |  |  | max | 95.9 µM |  | max |  | 54.5 |  | inhibition at 10 µM [1]: < 0%; inhibition at 10 µM [2]: 51%; IC50 (CYP2C9): 35.2 µM; IC50 (CYP3A4): 6.5 µM; IC50 (CYP2C19): 6.3 µM |
| Nc1nc2ccc(C(=O)N(Cc3ccc(Cl)c(Cl)c3)C3CC3)cc2s1 [Compound 1c, 2-amino-N-cyclopropyl-N-(3,4-dichlorobenzyl)benzo[d]thiazole-6-carboxamide] | 24 ± 3 | max | 18 ± 8 | 48.3 | 1.3 |  |  | 61.3 µM | 2.9 |  | 3.8 | 24.6 |  | LC50 (50% lethal concentration) [3]: 100 µM |
| Nc1nc2ccc(CN(Cc3ccc(Cl)c(Cl)c3)C3CC3)cc2s1 [Compound 1d, 6-((cyclopropyl(3,4-dichlorobenzyl)amino)methyl)benzo[_d_]thiazol-2-amine] | < 0 |  | 59 ± 2 | 8.8 | 4 |  |  | 34.4 µM | 1.2 |  | 1.5 | 12.6 | 67.1 | LC50 (50% lethal concentration) [3]: 63.1 µM |
| Nc1nc2ccc(C(=O)NCCc3ccc(Cl)cc3)cc2s1 [Compound 2c, 2-amino-N-(4-chlorophenethyl)benzo[d]thiazole-6-carboxamide] | < 0 | max | 27 | 9.6 |  | max | max | max | 4.2 |  | 40 |  |  | CYP 3A4 IC50 (CYP3A4): max |
| Nc1nc2ccc(C(=O)NCCc3cccc(Br)c3)cc2s1 [Compound 2d, 2-amino-N-(3-bromophenethyl)benzo[d]thiazole-6-carboxamide] | < 0 | max | 39 ± 5 | 74.5 | 5.4 |  | max | 85.5 µM | 2.9 | max |  | 60.4 |  |  |
| Nc1nc2ccc(C(=O)NCCc3ccccc3)cc2s1 [Compound 2a, 2-amino-N-phenethylbenzo[d]thiazole-6-carboxamide] | < 0 |  | 27 | 37.7 | 19.9 | max | max | max | 25.6 | max |  |  | 100 |  |
| Nc1nc2ccccc2n1Cc1ccc(Cl)c(Cl)c1 [I, 1-(3,4-dichlorobenzyl)-1H-benzimidazol-2-amine, reference compound] | 29 ± 2 |  | < 0 | 4.2 | 3.1 |  |  |  | 0.3 |  | 38.6 |  | 29.9 |  |

Reference: paper PMC12516686, “Design of 2‑Aminobenzothiazole Derivatives Targeting Trypanosomatid PTR1 by a Multidisciplinary Fragment Hybridization Approach” (Journal of Medicinal Chemistry, 2025)
